Measurements published in article PMC7579906, “Discovery of a dual inhibitor of NQO1 and GSTP1 for treating glioblastoma” (Journal of Hematology & Oncology, 2020).

Columns and labels:
[1] = target: T1, GSTP1 R100A (Homo sapiens, UniProt P09211, I105V/R101A); experiment: Microscale thermophoresis (MST), R100A; conditions: n.b. = no clear binding detected
T1 construct: hexahistidine tag followed by a thrombin site (N); made in house; host or cells: Escherichia coli BL21 (DE3)
Protocol: (§1) Since Tris buffer is incompatible with MST labeling, GSTP1 and its mutants were performed an initial buffer exchange to 20 mM HEPES pH 7.6, 200 mM NaCl before labeling. Then, the proteins were fluorescently labeled using Monolith Protein Labeling Kit RED-NHS 2nd generation dye (NanoTemper Technology, Munich, Germany) according to the protocol. MNPC was prepared with a series of concentrations (varying from 2 mM to 11 nM) at a dilution ratio of 1: 2. Six microliters of the fluorescence-labeled GSTP1 or mutations was mixed with 6 μl of variable concentration of MNPC and incubated for 10 min at room temperature. The mixtures were loaded into standard glass capillaries and analyzed on Monolith NT.115 at 25 °C, with 40% LED power and 100% Laser power in triplicate. Data were analyzed by NTAnalysis software to calculate the Kd values.

[2] = target: T2, GSTP1 WT (Homo sapiens, UniProt P09211, I105V); experiment: Microscale thermophoresis (MST), GSTP1 wild type; format: binding; conditions: mean ± SEM, three experiments
T2 construct: hexahistidine tag followed by a thrombin site (N); made in house; host or cells: Escherichia coli BL21 (DE3)
T2 sequence (P09211 whole entry I105V): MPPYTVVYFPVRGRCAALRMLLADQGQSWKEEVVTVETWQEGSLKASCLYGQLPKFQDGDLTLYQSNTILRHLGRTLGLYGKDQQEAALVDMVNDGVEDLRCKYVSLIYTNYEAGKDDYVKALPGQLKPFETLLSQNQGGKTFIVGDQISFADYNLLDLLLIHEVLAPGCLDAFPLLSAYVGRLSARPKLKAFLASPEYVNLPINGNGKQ
Protocol: as §1

[3] = target: T3, GSTP1 V104A (Homo sapiens, UniProt P09211, I105A); experiment: GSTP1 kinetic assay, V104A mutant; format: biochemical; conditions: mean ± SEM (n=3)
T3 construct: hexahistidine tag followed by a thrombin site (N); made in house; host or cells: Escherichia coli BL21 (DE3)
T3 sequence (P09211 2-210 I105A): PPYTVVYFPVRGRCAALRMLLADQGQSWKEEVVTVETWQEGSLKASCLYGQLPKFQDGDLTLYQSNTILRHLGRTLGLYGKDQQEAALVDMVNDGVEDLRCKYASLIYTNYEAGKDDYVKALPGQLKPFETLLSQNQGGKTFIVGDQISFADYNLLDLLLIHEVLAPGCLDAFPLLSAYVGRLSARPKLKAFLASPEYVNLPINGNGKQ
Protocol: (§2) The enzymatic activity of GSTP1 and its mutations was measured through the increased absorbance at 340 nm, which derived from the conjugation of reduced glutathione (GSH) and 1-chloro-2,4-dinitrobenzene (CDNB). The conjugation was initiated by adding CDNB to the mixture of GSH and GSTP1 or its mutants, and OD was immediately and continually measured for 20 min at 25 °C. The final assay mixture included 1 mM CDNB, 1 mM GSH in the buffer of 100 mM potassium phosphate pH 6.5, 1 mM EDTA. The inhibitory potency of MNPC versus GSTP1 or mutants was determined by calculating the residual activity after incubated with MNPC for 30 min at room temperature. Parallel control was run to monitor spontaneous conjugation of GSH and CDNB in the absence of the enzyme, and absorbance change of the control was used for the correction of an enzymatic reaction. The inhibition rate in triplicate was calculated by GraphPad Prism software (GraphPad, San Diego, CA) to give IC50 using nonlinear regression analysis.

[4] = tested on: normal cells (HC11, ACS-5003, MEFs); experiment: Cell proliferation and LDH assays in normal cells; format: cell-based; conditions: up to 5 μM
Protocol: In vitro assessment was implemented for cell proliferation using the 3-(4, 5- dimethylthiazol- 2-yl)-2,5-diphenyltetrazolium bromide (MTT) assay. After different treatments with specific time periods, 10 μL of MTT (5 mg/mL in PBS, Sigma, USA) was added to each well and the plates were incubated for 3 h at 37 °C. The resulting formazan product was dissolved with DMSO. The absorbance at a wavelength of 490 nm was recorded using a microplate reader (BioTek Instruments Inc., USA).
After collecting the supernatants, the […] were measured using LDH assay kits (Promega Corporation, USA). Protein carbonyl level and GSH/GSSG ratio were measured from cell homogenates using Protein Carbonyl Assay Kit (#ab126287, Abcam, Cambridge MA, USA) and GSH/GSSG-Glo™ (Promega Corporation, USA), respectively.

[5] = target: T4, AEP (asparagine endopeptidase) (Homo sapiens, UniProt Q99538); experiment: AEP activity assay in cell lysates; format: cell-based; conditions: U87MG/EGFRvIII lysates, 0-5 μM
T4 construct: endogenous in cells; host or cells: U87MG/EGFRvIII cells (lysate)
T4 sequence (Q99538 18-433): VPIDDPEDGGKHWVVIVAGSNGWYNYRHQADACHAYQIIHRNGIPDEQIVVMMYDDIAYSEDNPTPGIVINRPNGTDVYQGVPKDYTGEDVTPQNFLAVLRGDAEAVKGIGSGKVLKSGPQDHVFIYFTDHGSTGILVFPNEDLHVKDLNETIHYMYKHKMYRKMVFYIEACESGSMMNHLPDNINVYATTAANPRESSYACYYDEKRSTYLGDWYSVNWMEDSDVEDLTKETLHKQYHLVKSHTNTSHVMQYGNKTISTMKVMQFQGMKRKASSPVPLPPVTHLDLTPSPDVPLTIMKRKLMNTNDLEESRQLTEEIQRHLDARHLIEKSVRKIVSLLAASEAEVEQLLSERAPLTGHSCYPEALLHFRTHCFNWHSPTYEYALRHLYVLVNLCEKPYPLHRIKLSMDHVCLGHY
Protocol: After different treatments, cell lysates were incubated in 200 μl assay buffer (20 mM citric acid, 60 mM Na2HPO4, 1 mM EDTA, 0.1% CHAPS and 1 mM DTT, pH 6.0) containing 20 μM AEP substrate Z-Ala-Ala-Asn-AMC (Bachem, USA). AMC released by substrate cleavage was quantified by measuring every 10 min at 460 nm in a fluorescence plate reader at 37 °C in kinetic mode for the total time of 1 h.

[6] = target: T5, GSTP1 Y108A (Homo sapiens, UniProt P09211, I105V/Y109A); experiment: GSTP1 kinetic assay, Y108A mutant; format: biochemical; conditions: mean ± SEM (n=3)
T5 construct: hexahistidine tag followed by a thrombin site (N); made in house; host or cells: Escherichia coli BL21 (DE3)
T5 sequence (P09211 whole entry I105V/Y109A): as the sequence (P09211 whole entry I105V) above, with Y109A counted along it
Protocol: as §2

[7] = tested on: U87MG/EGFRvIII intracranial tumors; experiment: Intracranial U87MG/EGFRvIII xenograft in nude mice; format: in vivo, mouse
Protocol: Animals were housed, maintained and treated at Emory University in accordance with protocols approved by the Institutional Animal Care and Use Committee (IACUC) at Emory University. For xenograft animal models, U87MG/EGFRvIII cells (2 × 10^6) in 100 μl of PBS were inoculated subcutaneously into 6-week-old nude mice. Tumor growth was assessed every 3 days via size and body weight measurements. The total tumor volume (TV) was calculated according to the following formula: TV (mm^3) = a * b^2/2, where “a” is the […] diameter and “b” denotes the […] diameter. The mice were euthanized after 28 days. For the intracranial model, mice were placed in a stereotaxic instrument, and cells injection (1 × 10^5) in 2 μl was performed stereotaxically at coordinates anteroposterior (AP) -2.0 mm and mediolateral (ML) + 0.7 mm relative to bregma, and dorsoventral (DV) -3.0 mm from the dural surface. The needle remained in place for 5 min before it was removed slowly. The mice were placed on a heating pad until it began to recover from the surgery. After the surgery for 8 days, intraperitoneal (i.p.) injection was used at dose levels of 3 mg/kg, 10 mg/kg or control agent. This treatment was performed every 2 days for a total of 10 times. After the drug treatment, mice were euthanized and the tumor volumes were analyzed by MRI [37].
The tumors and primary organs from the nude mice of the above models were fixed in 10% formalin overnight and were then embedded in paraffin. Sections were prepared, and H&E staining was conducted to detect any histological changes of the tumors and organs. The expression of Ki67 in the tumor tissue slices was assessed using a technique that has been reported previously. Photographs were taken using a fluorescence microscope (Nikon, Japan).

[8] = higher dose (10 mg/kg) i.p. every 2 days, 10 doses

T1 sequence (P09211 whole entry R101A/I105V): as the sequence (P09211 whole entry I105V) above, with R101A counted along it

`Cc1onc(-c2ccccc2)c1C(=O)Nc1ncc([N+](=O)[O-])s1` [MNPC, 5-methyl-N-(5-nitro-thiazol-2-yl)-3-phenylisoxazole-4-carboxamide] was tested, and the “Kd (μM), R100A” value [1] was “n.b. and no detectable binding”, the Kd [2] was 17.6 ± 0.8 µM and the IC50 [3] was 0.65 ± 0.19 µM. For the same molecule, the “Effect on cell proliferation of normal cells” value [4] was “barely affected”, the “Inhibition of AEP” value [5] was “nor inhibited” and the IC50 [6] was 25.7 ± 1.41 µM. The “ROS levels, active caspase 3 and apoptosis in tumors” value ([7]; 3 and 10 mg/kg i.p.) was “dose-dependently increased”, the Mouse survival [7, 8] was “enhanced mouse survival” and the “Tumor growth (intracranial tumor volume)” value [7, 8] was “reduced tumor growth”.
